Source: patent US20210369677A1, “SMALL MOLECULE ACTIVATORS OF POLYCYSTIN-2 (PKD2) AND USES THEREOF” (Northwestern University, priority 2020, published 2021)
Where two headings read alike, the source gives them in different places.

How the values were obtained:
[1] = molecular target: T1, polycystin-2L1 (Homo sapiens, UniProt Q9P0L9, C210S/C223S); type: cell-based; conditions: C210S:C223S mutant
T1 construct: expressed in transfected cells; host or cells: HEK cells, transient overexpression
Method: Electrophysiology. Ciliary ion currents were recorded using borosilicate glass electrodes polished to resistances of 14-22 MΩ using the cilium patch method previously described^32. Whole cell electrodes used to measure poly cystin-2L1 currents were fire polished to 1.5-4 MΩ resistances. Unless otherwise stated, whole cilia ionic currents were recorded in symmetrical [Na^+]. The pipette standard internal solution contained (in mM): 90 NaMES, 10 NaCl, 10 HEPES, 10 Na4-BAPTA (Glycine, N, N′-[1,2-ethanediylbis(oxy-2,1-phenylene)]bis[N-(carboxymethyl)]-,tetrasodium); pH was adjusted to 7.3 using NaOH. Standard bath solution contained 140 NaCl, 10 HEPES, 1.8 CaCl2); pH 7.4. All solutions were osmotically balanced to 295 (±6) mOsm with mannitol. Extracellular solutions containing TCEP and GSH were used within six hours of formulation. Data were collected using an Axopatch 200B patch clamp amplifier, Digidata 1440A, and pClamp 10 software. Whole-cilium and excised patch currents were digitized at 25 kHz and low-pass filtered at 10 kHz. In the whole cilium configuration, the holding potential was −60 mV and then depolarized using a 400 ms voltage ramp from −100 mV to 100 mV. The whole cell recordings of polycystin-2L1 currents were either activated by the same ramp protocol or by 100 ms depolarizations to 100 mV from a −100 mV holding potential. External conditions were controlled using a Warner Perfusion Fast-Step (SF-77B) system in which the patched cilia and electrode were held in the perfusate stream. Data were analyzed by Igor Pro 7.00 (Wavemetrics, Lake Oswego, Oreg.). The polycystin-2 open probability and the polycystin-2L1 tail current-voltage relationships were fit to a Boltzmann function, f(x)=1/(1+exp[V−V1/2]/k) to estimate voltage of half-maximal activation of current (V1/2).

[2] = molecular target: T2, human polycystin-2 CTD EF hand (I704-P797) (Homo sapiens, UniProt Q13563); conditions: Yang et al., 2015; read-out: Kd previously reported for this peptide; cited from earlier work
T2 construct: The C-terminal fragment of the human polycystin-2 (I704-P797) was cloned into the PET19b vector; 10xHis (N); made in house; host or cells: E. coli BL21 (DE3)
T2 sequence (Q13563 704-797): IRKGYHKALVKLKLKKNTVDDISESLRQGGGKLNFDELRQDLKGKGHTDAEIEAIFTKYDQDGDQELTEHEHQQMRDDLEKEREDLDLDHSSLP

[3] = molecular target: T2, human polycystin-2 CTD EF hand (I704-P797); test: Isothermal titration calorimetry of divalent ions into the CTD of polycystin-2; type: binding; conditions: 25° C; read-out: Ca2+ affinity (Kd) for WT human CTD EF hand
Method: CTD protein expression, purification, and isothermal titration calorimetry. The C-terminal fragment of the human polycystin-2 (I704-P797) was cloned into the PET19b vector and transformed into BL21 (DE3) competent cells (New England Biolabs) for bacterial expression. The translated peptide has a 10×His tag on its N-terminus. The alanine mutants of the individual calcium-coordinating residues were created and transformed as well. Cells were grown in 2XYT broth in a 37° C. shaking incubator until OD600 reaches ˜0.6, and were induced by 0.4 mM isopropyl 1-thio-β-D-galactopyranoside and grown for another 4 hours. Cells were harvested and resuspended in Buffer A (500 mM NaCl, 20 mM Tris/HCl, pH 7.4), 5% glycerol, 0.25 mM EDTA pH 8.0, 1 mM PMSF (RPI), 25 μg/ml of lysozyme and DNase I (GoldBio). The suspension was then lysed by sonication and clarified by centrifugation (30,000×g for 0.5 h). Filtered supernatant was loaded into a HisPur cobalt Superflow agarose column (ThermoScientific). The column was washed with 10 column volume (CV) of buffer A, 5 CV of buffer A+5 mM imidazole, and finally eluted with 3 CV of buffer A+100 mM imidazole. The eluate was desalted by dialysis in 150 mM NaCl, 20 mM Tris/HCl, 20 mM imidazole, pH 7.4. SDS-PAGE gel confirmed the expression, solubility, and purity of the peptide. All of our solutions were formulated with ultrapure water (Milli-Q® IQ 7005 water purification system), that has less than 0.29 ng/L calcium ions present. The binding affinity is recorded based on the heat difference between the sample cell and reference cell measured by MicroCal iTC200. […] The cells were insulated by an adiabatic jacket held at 25° C. The heat of dilution of Ca^2+ was not subtracted from data sets, as the signal was prohibitively small for several of the mutant channels. The exothermic energy of the bimolecular interaction between Ca^2+ and peptide during each injection was analyzed by integrating the change in heat to generate the binding isotherm. […]

T1 sequence (Q9P0L9 whole entry C210S/C223S): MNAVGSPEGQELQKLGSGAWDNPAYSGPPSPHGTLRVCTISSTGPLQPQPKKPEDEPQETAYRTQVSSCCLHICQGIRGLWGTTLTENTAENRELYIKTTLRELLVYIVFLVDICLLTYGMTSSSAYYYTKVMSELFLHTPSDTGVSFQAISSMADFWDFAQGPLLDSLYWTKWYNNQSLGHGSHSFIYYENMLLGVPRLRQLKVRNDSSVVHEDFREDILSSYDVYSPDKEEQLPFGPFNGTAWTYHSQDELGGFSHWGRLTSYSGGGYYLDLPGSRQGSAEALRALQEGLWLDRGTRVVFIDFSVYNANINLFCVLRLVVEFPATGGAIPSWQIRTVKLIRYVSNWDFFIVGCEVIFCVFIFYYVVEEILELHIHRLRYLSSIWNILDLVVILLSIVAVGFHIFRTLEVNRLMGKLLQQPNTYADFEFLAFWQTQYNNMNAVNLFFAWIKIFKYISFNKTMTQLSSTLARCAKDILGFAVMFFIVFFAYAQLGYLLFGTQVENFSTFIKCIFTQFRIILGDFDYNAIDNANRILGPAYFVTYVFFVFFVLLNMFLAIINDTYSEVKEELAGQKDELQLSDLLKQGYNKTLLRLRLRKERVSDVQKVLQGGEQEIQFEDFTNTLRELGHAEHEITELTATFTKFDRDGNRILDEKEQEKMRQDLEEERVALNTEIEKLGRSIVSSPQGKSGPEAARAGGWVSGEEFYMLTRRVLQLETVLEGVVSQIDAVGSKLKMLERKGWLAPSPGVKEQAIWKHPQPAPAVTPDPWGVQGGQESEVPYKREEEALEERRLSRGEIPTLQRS

Effect on C210S:C223S polycystin-2L1 channel [1] | Compound | Kd [2] [µM] | Kd [3] [µM]
insensitive | N[C@@H](CCC(=O)N[C@@H](CS)C(=O)NCC(=O)O)C(=O)O [GSH, reduced glutathione] | – | –
– | [Ca+2] [Ca^2+, calcium] | 22 | 19 ± 5
